According to article PMC11224111, “Optimizing the pharmacokinetics of an ^211At-labeled RGD peptide with an albumin-binding moiety via the administration of an albumin-binding inhibitor” (European Journal of Nuclear Medicine and Molecular Imaging, 2024):
Marks after values point to notes of the source that are not given here.

Key:
[1] = Radiation dose estimation (MIRDcalc, adult male) from mouse biodistribution; parameters: species or system human; settings: for Absorbed dose estimates, Bone marrow / Absorbed dose estimates, Brain / Absorbed dose estimates, Heart / Absorbed dose estimates, Kidney / Absorbed dose estimates, L. intestine / Absorbed dose estimates, Liver / Absorbed dose estimates, Lung / Absorbed dose estimates, Muscle / Absorbed dose estimates, Pancreas / Absorbed dose estimates, S. intestine / Absorbed dose estimates, Spleen / Absorbed dose estimates, Stomach / Absorbed dose estimates, Thyroid / Absorbed dose estimates, Tumor: adult male, MIRDcalc
Description: For estimation of the radiation dose absorbed, the blood, bone, and muscle mass of mice were assumed to be 8%, 5%, and 48% of body weight, respectively. The stomach was assumed to be distributed only in the wall, the heart, small intestine, and colon equally in the content and wall, and the colon was further assumed to be equally distributed in the left, right, and rectosigmoid. According to the International Commission on Radiological Protection, an equal distribution of radionuclide to trabecular and cortical bones was assumed. The non-decay-corrected activity from each source organ was converted into a percentage of the injected dose. The area under each organ’s activity curve from time 0 to infinity was calculated by extrapolation of biodistribution data. To correct for the different ratios of organ to total body weights in mouse and in human, we used the following organ correction factor (CR):
CR=organmass/totalbodymasshuman/organmass/totalbodymassmouse
Human organ weights and total body weights used data for adult males from previous reports. Tumor volume was converted from mouse-to-human total body weight ratio. According to the values, the radiation doses were calculated for an adult male patient using MIRDcalc v1.21 software (Society of Nuclear Medicine and Molecular Imaging). In the case of without administrating IPBA, calculation was performed using the data of a biodistribution study in our previous study.

[2] = Biodistribution of [^211At]1 and [^125I]2 in normal mice with ibuprofen or IPBA as albumin-binding inhibitor; settings: 4 h after administration
Method: To evaluate the effects of albumin-binding inhibitors in normal mice, [^211At]1 (37 kBq) and [^125I]2 (37 kBq) were intravenously coadministered. […] The total blood albumin (1.1 µmol) in normal mice was calculated from the albumin concentration (3.0 g/dL ≈ 455 µM) in blood, which was informed from Japan SLC, Inc., total blood volume (2.5 mL) as 8% of body weight, and the molecular weight of albumin as 66,000 g/mol. […]
Table S1. Biodistribution of radioactivity 4 h after administration of [^211At]1 and [^125I]2 in normal mice.

[3] = With IPBA, ratio of absorbed dose estimates
[4] = Without IPBA, calculated from data of ref 16
[5] = Without IPBA, ratio of absorbed dose estimates, calculated from data of ref 16
[6] = IPBA 10 eq at 1 h postinjection
[7] = ibuprofen 10 eq at 1 h postinjection

## Ga-DOTA-K([^211At]APBA)-c(RGDfK) [[^211At]1]
[1]; 1.85 MBq with IPBA
  Absorbed dose to tumor tissue: 1.34 mGy
[1]; With IPBA
  Absorbed dose estimates, Bone marrow: 0.042 mGy/MBq
  Absorbed dose estimates, Brain: 0.017 mGy/MBq
  Absorbed dose estimates, Heart: 0.080 mGy/MBq
  Absorbed dose estimates, Kidney: 0.266 mGy/MBq
  Absorbed dose estimates, L. intestine: 0.056 mGy/MBq
  Absorbed dose estimates, Liver: 0.109 mGy/MBq
  Absorbed dose estimates, Lung: 0.203 mGy/MBq
  Absorbed dose estimates, Muscle: 0.300 mGy/MBq
  Absorbed dose estimates, Pancreas: 0.087 mGy/MBq
  Absorbed dose estimates, S. intestine: 0.052 mGy/MBq
  Absorbed dose estimates, Spleen: 0.117 mGy/MBq
  Absorbed dose estimates, Stomach: 0.051 mGy/MBq
  Absorbed dose estimates, Thyroid: 0.032 mGy/MBq
  Absorbed dose estimates, Tumor: 0.727 mGy/MBq
[1]; [3]
  Tumor/normal tissue ratio, Brain: 51.071
  Tumor/normal tissue ratio, Heart: 10.712
  Tumor/normal tissue ratio, Kidney: 3.226
  Tumor/normal tissue ratio, L. intestine: 15.349
  Tumor/normal tissue ratio, Liver: 7.872
  Tumor/normal tissue ratio, Lung: 4.227
  Tumor/normal tissue ratio, Muscle: 2.860
  Tumor/normal tissue ratio, Pancreas: 9.873
  Tumor/normal tissue ratio, S. intestine: 16.437
  Tumor/normal tissue ratio, Spleen: 7.333
  Tumor/normal tissue ratio, Stomach: 16.791
  Tumor/normal tissue ratio, Thyroid: 26.729
[1]; [4]
  Absorbed dose estimates, Bone marrow: 0.132 mGy/MBq
  Absorbed dose estimates, Brain: 0.218 mGy/MBq
  Absorbed dose estimates, Heart: 0.381 mGy/MBq
  Absorbed dose estimates, Kidney: 0.427 mGy/MBq
  Absorbed dose estimates, L. intestine: 0.193 mGy/MBq
  Absorbed dose estimates, Liver: 0.319 mGy/MBq
  Absorbed dose estimates, Lung: 0.976 mGy/MBq
  Absorbed dose estimates, Muscle: 0.557 mGy/MBq
  Absorbed dose estimates, Pancreas: 0.246 mGy/MBq
  Absorbed dose estimates, S. intestine: 0.190 mGy/MBq
  Absorbed dose estimates, Spleen: 0.354 mGy/MBq
  Absorbed dose estimates, Stomach: 0.176 mGy/MBq
  Absorbed dose estimates, Thyroid: 0.111 mGy/MBq
  Absorbed dose estimates, Tumor: 0.858 mGy/MBq
[1]; [5]
  Tumor/normal tissue ratio, Bone marrow: 6.500
  Tumor/normal tissue ratio, Brain: 3.936
  Tumor/normal tissue ratio, Heart: 2.252
  Tumor/normal tissue ratio, Kidney: 2.009
  Tumor/normal tissue ratio, L. intestine: 4.446
  Tumor/normal tissue ratio, Liver: 2.690
  Tumor/normal tissue ratio, Lung: 0.879
  Tumor/normal tissue ratio, Muscle: 1.540
  Tumor/normal tissue ratio, Pancreas: 3.488
  Tumor/normal tissue ratio, S. intestine: 4.516
  Tumor/normal tissue ratio, Spleen: 2.424
  Tumor/normal tissue ratio, Stomach: 4.875
  Tumor/normal tissue ratio, Thyroid: 7.730
[2]; IPBA 2 eq at 1 h postinjection
  Radioactivity, Blood: 8.33 (0.29)^ a, b % injected activity per gram
  Radioactivity, Bone: 1.35 (0.06)^ a % injected activity per gram
  Radioactivity, Brain: 0.24 (0.04)^ a % injected activity per gram
  Radioactivity, Heart: 2.90 (0.09) ^a, b % injected activity per gram
  Radioactivity, Kidney: 3.36 (0.20) % injected activity per gram
  Radioactivity, L. intestine: 1.53 (0.39) % injected activity per gram
  Radioactivity, Liver: 1.68 (0.15)^ a % injected activity per gram
  Radioactivity, Lung: 4.96 (0.40)^ a, b % injected activity per gram
  Radioactivity, Muscle: 1.16 (0.09) % injected activity per gram
  Radioactivity, Neck: 0.23 (0.07)^ a % injected activity
  Radioactivity, Pancreas: 1.55 (0.15)^ a, b % injected activity per gram
  Radioactivity, S. intestine: 1.47 (0.05) % injected activity per gram
  Radioactivity, Spleen: 1.54 (0.18) % injected activity per gram
  Radioactivity, Stomach: 1.84 (0.32) % injected activity
[2]; IPBA 5 eq at 1 h postinjection
  Radioactivity, Blood: 3.46 (0.33)^ a, b, c % injected activity per gram
  Radioactivity, Bone: 0.95 (0.08)^ a, b % injected activity per gram
  Radioactivity, Brain: 0.16 (0.01)^ a % injected activity per gram
  Radioactivity, Heart: 1.38 (0.13)^ a, b, c % injected activity per gram
  Radioactivity, Kidney: 3.67 (0.10) ^b % injected activity per gram
  Radioactivity, L. intestine: 0.84 (0.22) ^b % injected activity per gram
  Radioactivity, Liver: 1.35 (0.16)^ a, b, c % injected activity per gram
  Radioactivity, Lung: 2.84 (0.27)^ a, b, c % injected activity per gram
  Radioactivity, Muscle: 0.62 (0.04)^ a, b, c % injected activity per gram
  Radioactivity, Neck: 0.08 (0.02)^ a, b % injected activity
  Radioactivity, Pancreas: 1.03 (0.15)^ a, b, c % injected activity per gram
  Radioactivity, S. intestine: 1.35 (0.13) % injected activity per gram
  Radioactivity, Spleen: 1.19 (0.73)^ a % injected activity per gram
  Radioactivity, Stomach: 1.45 (0.45)^ a, b % injected activity
[2]; [6]
  Radioactivity, Blood: 1.56 (0.20)^ a, b, c, d % injected activity per gram
  Radioactivity, Bone: 0.98 (0.12)^ a, b, c % injected activity per gram
  Radioactivity, Brain: 0.14 (0.02)^ a % injected activity per gram
  Radioactivity, Heart: 0.78 (0.10)^ a, b, c, d % injected activity per gram
  Radioactivity, Kidney: 3.77 (0.50)^ b % injected activity per gram
  Radioactivity, L. intestine: 0.88 (0.27)^ b % injected activity per gram
  Radioactivity, Liver: 0.80 (0.07)^ a, b, c % injected activity per gram
  Radioactivity, Lung: 1.88 (0.12)^ a, b, c % injected activity per gram
  Radioactivity, Muscle: 0.42 (0.03)^ a, b, c, d % injected activity per gram
  Radioactivity, Neck: 0.03 (0.02)^ b, c, d % injected activity
  Radioactivity, Pancreas: 0.66 (0.17)^ a, b, c, d % injected activity per gram
  Radioactivity, S. intestine: 1.14 (0.08)^ a, b, d % injected activity per gram
  Radioactivity, Spleen: 1.22 (0.17)^ a % injected activity per gram
  Radioactivity, Stomach: 1.30 (0.20)^ d % injected activity
[2]; [7]
  Radioactivity, Blood: 10.82 (0.58) ^a % injected activity per gram
  Radioactivity, Bone: 1.57 (0.18)^ a % injected activity per gram
  Radioactivity, Brain: 0.26 (0.03) % injected activity per gram
  Radioactivity, Heart: 3.49 (0.36) % injected activity per gram
  Radioactivity, Kidney: 3.03 (0.24) % injected activity per gram
  Radioactivity, L. intestine: 2.32 (0.57) % injected activity per gram
  Radioactivity, Liver: 1.87 (0.31)^ a % injected activity per gram
  Radioactivity, Lung: 6.44 (1.14) % injected activity per gram
  Radioactivity, Muscle: 1.28 (0.15) % injected activity per gram
  Radioactivity, Neck: 0.18 (0.03)^ a % injected activity
  Radioactivity, Pancreas: 1.85 (0.12) % injected activity per gram
  Radioactivity, S. intestine: 1.58 (0.15) % injected activity per gram
  Radioactivity, Spleen: 1.47 (0.29)^ a % injected activity per gram
  Radioactivity, Stomach: 1.57 (0.21) % injected activity
[2]; vehicle at 1 h postinjection
  Radioactivity, Blood: 14.03 (0.79) % injected activity per gram
  Radioactivity, Bone: 1.88 (0.10) % injected activity per gram
  Radioactivity, Brain: 0.37 (0.11) % injected activity per gram
  Radioactivity, Heart: 3.83 (0.30) % injected activity per gram
  Radioactivity, Kidney: 3.19 (0.20) % injected activity per gram
  Radioactivity, L. intestine: 1.52 (0.35) % injected activity per gram
  Radioactivity, Liver: 2.51 (0.20) % injected activity per gram
  Radioactivity, Lung: 7.69 (0.63) % injected activity per gram
  Radioactivity, Muscle: 1.26 (0.09) % injected activity per gram
  Radioactivity, Neck: 0.05 (0.01) % injected activity
  Radioactivity, Pancreas: 1.88 (0.10) % injected activity per gram
  Radioactivity, S. intestine: 1.85 (0.16) % injected activity per gram
  Radioactivity, Spleen: 2.02 (0.26) % injected activity per gram
  Radioactivity, Stomach: 0.80 (0.10) % injected activity
